These results are taken from patent US9394297B2, “Amides as pim inhibitors” (AMGEN INC., priority 2012, dated 2016).

One test deals with Pim-2 (Homo sapiens (Human), UniProt Q9P1W9). The experiment in a line: Pim-Mn enzyme assay (HTRF, 384-well), Pim-2. As to conditions: read-out: Pim-2-Mn IC50 IP. Type of test: biochemical. A general note: In TR-FRET formats the signal depends on donor and acceptor labels being close together.
A further test concerns the target Pim-1 (Homo sapiens (Human), UniProt P11309). The experiment in a line: Pim-Mn enzyme assay (HTRF, 384-well), Pim-1. Type of test: biochemical. The settings on record: Pim-1 enzyme 5 pM, ATP 1.5 μM, BAD (S112) 0.5 μM, HTRF, 22-point curve; read-out: Pim-1-Mn IC50 IP.
Where [1] appears, read: Pim-2 enzyme 0.5 pM, ATP 1.5 μM, BAD (S112) 0.5 μM, HTRF, 22-point curve.

Counter-ions that a name gives are not always drawn. Like-named read-outs stand apart in the source and are kept apart here.

Broadly, the IC50 is the concentration that inhibits the measured activity by half.

Chain of Pim-2 (Q9P1W9 whole entry): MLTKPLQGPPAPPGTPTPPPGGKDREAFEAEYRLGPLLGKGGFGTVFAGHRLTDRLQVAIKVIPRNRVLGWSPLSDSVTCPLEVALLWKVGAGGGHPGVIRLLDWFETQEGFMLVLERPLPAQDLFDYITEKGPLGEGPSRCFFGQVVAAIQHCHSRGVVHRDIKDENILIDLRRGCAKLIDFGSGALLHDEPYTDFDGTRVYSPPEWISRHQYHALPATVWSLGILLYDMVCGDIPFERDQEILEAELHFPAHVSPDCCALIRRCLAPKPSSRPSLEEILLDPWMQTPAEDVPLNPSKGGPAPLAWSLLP
Chain of Pim-1 (P11309 whole entry): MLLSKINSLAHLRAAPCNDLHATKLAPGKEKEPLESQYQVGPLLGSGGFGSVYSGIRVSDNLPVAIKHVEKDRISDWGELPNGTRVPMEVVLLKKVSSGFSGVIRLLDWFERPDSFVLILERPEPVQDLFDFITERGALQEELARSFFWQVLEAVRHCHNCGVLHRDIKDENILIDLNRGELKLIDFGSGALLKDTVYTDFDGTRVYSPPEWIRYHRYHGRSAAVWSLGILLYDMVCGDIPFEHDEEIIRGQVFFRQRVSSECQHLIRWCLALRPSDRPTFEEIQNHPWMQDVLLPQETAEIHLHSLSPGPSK

In the case of `Cc1nc2cccc(-c3cc4c([nH]3)CCNC4=O)c2nc1N[C@H]1CC[C@H]1N` (racemic) [Example 54, rac-2-(3-((cis-2-aminocyclobutyl)amino)-2-methyl-5-quinoxalinyl)-1,5,6,7-tetrahydro-4H-pyrrolo[3,2-c]pyridin-4-one], the IC50 at Pim-2 (setting [1]) worked out at 2.9 nM; on Pim-1, 1.3 nM. In the same order, the values of `Cc1nc2cccc(-c3cc4n(c3)C(CCO)CNC4=O)c2nc1NC(C)(C)C` (racemic) [Example 235, (±)-7-(3-(tert-butylamino)-2-methyl-5-quinoxalinyl)-4-(2-hydroxyethyl)-3,4-dihydropyrrolo[1,2-a]pyrazin-1(2H)-one] are 14.5 nM and 9.5 nM. The like results for `Cc1nc2cccc(-c3cc4c([nH]3)C(Cc3ccc(Cl)cc3)CNC4=O)c2nc1N` (racemic) [Example 273, rac-2-(3-amino-2-methyl-5-quinoxalinyl)-7-(4-chlorobenzyl)-1,5,6,7-tetrahydro-4H-pyrrolo[3,2-c]pyridin-4-one] were, in that order, 19.1 nM and 39 nM. The like results for `CC#CCC1CNC(=O)c2cc(-c3cccc4nc(C)c(NC(C)(C)C)nc34)[nH]c21` (racemic) [Example 278, rac-2-(3-(tert-butylamino)-2-methyl-5-quinoxalinyl)-7-(2-butyn-1-yl)-1,5,6,7-tetrahydro-4H-pyrrolo[3,2-c]pyridin-4-one] were, in that order, 10.5 nM and 3.1 nM. Regarding `CC#CCC1CNC(=O)c2cc(-c3cccc4nc(C)c(F)nc34)[nH]c21` (racemic) [Example 280, rac-7-(2-butyn-1-yl)-2-(3-fluoro-2-methyl-5-quinoxalinyl)-1,5,6,7-tetrahydro-4H-pyrrolo[3,2-c]pyridin-4-one], the figures for the 50% inhibitory concentration (IC50) at Pim-2 (setting [1]) and at Pim-1 were 706 nM and 838 nM, respectively. For the molecule `C[C@H]1NC(=O)c2cc(-c3cccc4c(=O)n(C)c(N[C@H]5CCC[C@@H](N)C5)nc34)[nH]c21` (racemic) [Example 506, (rac)-2-(((cis)-3-aminocyclohexyl)amino)-3-methyl-8-((6R)-6-methyl-4-oxo-1,4,5,6-tetrahydropyrrolo[3,4-b]pyrrol-2-yl)-4(3H)-quinazolinone], the IC50 at Pim-2 (setting [1]) turned out to be 0.1 nM. As to `C[C@H]1NC(=O)c2cc(-c3cccc4c(=O)n(C)c(N[C@@H]5CCC[C@H](NC(=O)OC(C)(C)C)C5)nc34)[nH]c21` (racemic) [Example 509, (rac)-tert-butyl ((cis)-3-((3-methyl-8-((R)-6-methyl-4-oxo-1,4,5,6-tetrahydropyrrolo[3,4-b]pyrrol-2-yl)-4-oxo-3,4-dihydroquinazolin-2-yl)amino)cyclohexyl)carbamate], the IC50 at Pim-2 (setting [1]) was determined as 15 nM; at Pim-1, 14 nM. In the same order, the values of `Cc1nc2cccc(-c3cc4c([nH]3)C(C)CNC4=O)c2nc1NC1CC1` (single isomer, unassigned) [Example 160, 2-(3-(cyclopropylamino)-2-methylquinoxalin-5-yl)-7-methyl-6,7-dihydro-1H-pyrrolo[3,2-c]pyridin-4(5H)-one] are 0.5 nM and 1 nM.

For `Cc1nc2cccc(-c3cc4c([nH]3)C(C)CNC4=O)c2nc1NC1CC1` (single isomer, unassigned) [Example 161, 2-(3-(cyclopropylamino)-2-methylquinoxalin-5-yl)-7-methyl-6,7-dihydro-1H-pyrrolo[3,2-c]pyridin-4(5H)-one], the results for the IC50 at Pim-2 (setting [1]) and at Pim-1 were 0.7 nM and 0.8 nM, respectively. In the case of `Cc1nc2cccc(-c3cc4c([nH]3)CCNC4=O)c2nc1NC(C)C(F)(F)F` (stereo in doubt) [Example 256, (R)-2-(2-methyl-3-((1,1,1-trifluoropropan-2-yl)amino)quinoxalin-5-yl)-6,7-dihydro-1H-pyrrolo[3,2-c]pyridin-4(5H)-one], the IC50 was 4.32 nM on Pim-2 (setting [1]) and 4.97 nM at Pim-1. On to `Cc1nc2cccc(-c3cc4c([nH]3)CCNC4=O)c2nc1NC1CCN(C(=O)OC(C)(C)C)CC1` [Example 47, tert-butyl 4-((3-methyl-8-(4-oxo-4,5,6,7-tetrahydro-1H-pyrrolo[3,2-c]pyridin-2-yl)-2-quinoxalinyl)amino)-1-piperidinecarboxylate], for which the 50% inhibitory concentration (IC50) came to 34.9 nM on Pim-2 (setting [1]) and 13.2 nM on Pim-1. In the same order, the values of `Cc1nc2cccc(-c3cc4c([nH]3)CCNC4=O)c2nc1N[C@@H]1CCN(C(=O)OC(C)(C)C)C1` [Example 48, tert-butyl (3R)-3-((3-methyl-8-(4-oxo-4,5,6,7-tetrahydro-1H-pyrrolo[3,2-c]pyridin-2-yl)-2-quinoxalinyl)amino)-1-pyrrolidinecarboxylate] are 116 nM and 26.2 nM. As to `Cc1nc2cccc(-c3cc4c([nH]3)CCNC4=O)c2nc1N[C@H]1CCN(C(=O)OC(C)(C)C)C1` [Example 49, (S)-tert-butyl-3-((3-methyl-8-(4-oxo-4,5,6,7-tetrahydro-1H-pyrrolo[3,2-c]pyridin-2-yl)quinoxalin-2-yl)amino)pyrrolidine-1-carboxylate], the results for the 50% inhibitory concentration (IC50) at Pim-2 (setting [1]) and at Pim-1 were 144 nM and 47.2 nM, respectively. The like results for `CC(=O)N1CCC(Nc2nc3c(-c4cc5c([nH]4)CCNC5=O)cccc3nc2C)CC1` [Example 50, 2-(3-((1-acetyl-4-piperidinyl)amino)-2-methyl-5-quinoxalinyl)-1,5,6,7-tetrahydro-4H-pyrrolo[3,2-c]pyridin-4-one] were, in that order, 24.4 nM and 13.7 nM. Take `Cc1nc2cccc(-c3cc4c([nH]3)CCNC4=O)c2nc1N[C@H]1CCCN(C(=O)OC(C)(C)C)C1` [Example 51, tert-butyl (3S)-3-((3-methyl-8-(4-oxo-4,5,6,7-tetrahydro-1H-pyrrolo[3,2-c]pyridin-2-yl)-2-quinoxalinyl)amino)-1-piperidinecarboxylate]: the results for the concentration for half-maximal inhibition (IC50) on Pim-2 (setting [1]) and at Pim-1 were 220 nM and 191 nM, respectively. In the case of `Cc1nc2cccc(-c3cc4c([nH]3)CCNC4=O)c2nc1N[C@@H]1CCCN(C(=O)OC(C)(C)C)C1` [Example 52, tert-butyl (3R)-3-((3-methyl-8-(4-oxo-4,5,6,7-tetrahydro-1H-pyrrolo[3,2-c]pyridin-2-yl)-2-quinoxalinyl)amino)-1-piperidinecarboxylate], the figures for the IC50 on Pim-2 (setting [1]) and at Pim-1 were 403 nM and 149 nM, respectively.

For `Cc1nc2cccc(-c3cc4c([nH]3)CCNC4=O)c2nc1NC1CCNCC1` [Example 53, 2-(2-methyl-3-(4-piperidinylamino)-5-quinoxalinyl)-1,5,6,7-tetrahydro-4H-pyrrolo[3,2-c]pyridin-4-one], the IC50 on Pim-2 (setting [1]) was found to be 2.4 nM; at Pim-1, 0.6 nM.

In the case of `Cc1nc2cccc(-c3cc4c([nH]3)CCNC4=O)c2nc1N[C@H]1CCNC1` [Example 55, 2-(2-methyl-3-((3S)-3-pyrrolidinylamino)-5-quinoxalinyl)-1,5,6,7-tetrahydro-4H-pyrrolo[3,2-c]pyridin-4-one], the IC50 at Pim-2 (setting [1]) worked out at 3 nM; at Pim-1, 0.7 nM.

In the case of `COC(=O)C(C)(C)Nc1nc2c(-c3cc4c([nH]3)CCNC4=O)cccc2nc1C` [Example 57, Methyl 2-methyl-N-(3-methyl-8-(4-oxo-4,5,6,7-tetrahydro-1H-pyrrolo[3,2-c]pyridin-2-yl)-2-quinoxalinyl)alaninate], the concentration for half-maximal inhibition (IC50) at Pim-2 (setting [1]) was 54.3 nM; at Pim-1, 24.2 nM.

Regarding `Cc1nc2cccc(-c3cc4c([nH]3)CCNC4=O)c2nc1NC(C)(C)C(=O)O` [Example 60, 2-methyl-N-(3-methyl-8-(4-oxo-4,5,6,7-tetrahydro-1H-pyrrolo[3,2-c]pyridin-2-yl)-2-quinoxalinyl)alanine], the IC50 at Pim-2 (setting [1]) was 191 nM; on Pim-1, 300 nM. In the same order, the values of `Cc1nc2cccc(-c3cc4c([nH]3)CCNC4=O)c2nc1N[C@@H]1CCNC1` [Example 61, 2-(2-methyl-3-((3R)-3-pyrrolidinylamino)-5-quinoxalinyl)-1,5,6,7-tetrahydro-4H-pyrrolo[3,2-c]pyridin-4-one] are 26.4 nM and 6.1 nM. Regarding `CC(=O)N1CC[C@@H](Nc2nc3c(-c4cc5c([nH]4)CCNC5=O)cccc3nc2C)C1` [Example 64, 2-(3-(((3R)-1-acetyl-3-pyrrolidinyl)amino)-2-methyl-5-quinoxalinyl)-1,5,6,7-tetrahydro-4H-pyrrolo[3,2-c]pyridin-4-one], the half-inhibitory concentration (IC50) at Pim-2 (setting [1]) was 34.5 nM; at Pim-1 it was 25.9 nM. On to `CC(=O)N1CC[C@H](Nc2nc3c(-c4cc5c([nH]4)CCNC5=O)cccc3nc2C)C1` [Example 65, (S)-2-(3-((1-acetylpyrrolidin-3-yl)amino)-2-methylquinoxalin-5-yl)-6,7-dihydro-1H-pyrrolo[3,2-c]pyridin-4(5H)-one], for which the figures for the half-inhibitory concentration (IC50) at Pim-2 and on Pim-1 were 72.8 nM and 57.8 nM, respectively. As for `Cc1nc2cccc(-c3cc4c([nH]3)CCNC4=O)c2nc1N[C@H]1C[C@H](N)C1` [Example 437, 2-(3-(((1r,3r)-3-aminocyclobutyl)amino)-2-methylquinoxalin-5-yl)-6,7-dihydro-1H-pyrrolo[3,2-c]pyridin-4(5H)-one hydrochloride], the IC50 on Pim-1 was 0.5 nM. Same read-out and setting: with `Cc1nc2cccc(-c3cc4c([nH]3)[C@@H](C)NC4=O)c2nc1N[C@H]1CCC[C@@H](NCC(F)(F)F)C1` [Example 487, (6R)-6-methyl-2-(2-methyl-3-(((1S,3R)-3-((2,2,2-trifluoroethyl)amino)cyclohexyl)amino)-5-quinoxalinyl)-5,6-dihydropyrrolo[3,4-b]pyrrol-4(1H)-one] the figure was 0.501 nM; with `C[C@H]1NC(=O)c2cc(-c3c(F)ccc4c(=O)n(C5CC5)c(NC5(C)CCC5)nc34)[nH]c21` [Example 498, 3-Cyclopropyl-7-fluoro-2-((1-methylcyclobutyl)amino)-8-((6R)-6-methyl-4-oxo-1,4,5,6-tetrahydropyrrolo[3,4-b]pyrrol-2-yl)-4(3H)-quinazolinone], 0.07 nM. As to “(R)-2-(3-(cyclopropylamino)-6-fluoro-2-methylquinoxalin-5-yl)-6-methyl-5,6-dihydropyrrolo[3,4-b]pyrrol-4(1H)-one [Example 284]”, the IC50 on Pim-1 was 1.2 nM.
